Measurements published in article PMC4823124, “Selective targeting of BCL6 induces oncogene addiction switching to BCL2 in B-cell lymphoma” (Oncotarget, 2015).

Key:
OCI-Ly1 cells = experiment: Cell viability of OCI-Ly1 cells transfected with siRNA and treated with ABT-737; assay type: cell-based; details: ABT-737 250 nM for 72 h
Description: DLBCL cells (3 × 10^6 to 5 × 10^6) were transfected with 1 micromolar siRNA for BCL6 (siBCL6-1 HSS100968 Life Technologies, siBCL6-2 SI00311129 Qiagen, siBCL6-3 SI0031143 Qiagen and siBCL6-4 SI0031150 Qiagen) or control (GFP targeting siRNA) using 96-well electroporation (SF buffer, Lonza).
Cells were grown on U-bottom 96-well plates at respective concentrations sufficient to keep untreated cells under exponential growth by the time of read-out after treatment. Cells were exposed to each drug alone and to the combination of both drugs on the same plate in 48 h experiments. In sequential experiments, compounds were added 48 h apart in 72 h experiments. Cell viability was then determined using a fluorometric assay based on the resazurin reduction activity of the cells (Cell Titer Blue, Promega) and confirmed by trypan blue dye-exclusion (Sigma). Fluorescence was determined for controls and three replicates per treatment condition using the Synergy4 microplate reader (BioTek). Standard curves were obtained for each individual cell line with the cell count and fluorescence values. The number of viable cells was obtained using the least-squares regression method of the standard curve and by doing a ratiometric quantification of viable cells normalized to the respective controls. […] A cell killing effect was calculated as the 1 — normalized viability value.

OCI-Ly4 = experiment: Cell viability, RI-BPI, ABT-737 or combination; assay type: cell-based; details: BCL6-independent GCB-DLBCL cell line OCI-Ly4; 48 h; quintuplicates
Description: Cells were grown on U-bottom 96-well plates at respective concentrations sufficient to keep untreated cells under exponential growth by the time of read-out after treatment. Cells were exposed to each drug alone and to the combination of both drugs on the same plate in 48 h experiments. In sequential experiments, compounds were added 48 h apart in 72 h experiments. Cell viability was then determined using a fluorometric assay based on the resazurin reduction activity of the cells (Cell Titer Blue, Promega) and confirmed by trypan blue dye-exclusion (Sigma). […] Standard curves were obtained for each individual cell line with the cell count and fluorescence values. The number of viable cells was obtained using the least-squares regression method of the standard curve and by doing a ratiometric quantification of viable cells normalized to the respective controls. […] A cell killing effect was calculated as the 1 — normalized viability value.
(§1) www.impactjournals.com/oncotarget/ Oncotarget, Supplementary Materials 2015
Supplementary Figure S2: Baseline features of DLBCL cells responsive and resistant to RI-BPI. A. Baseline features of
RI-BPI sensitive (S) and resistant (R) groups of DLBCL cells according to cell-of-origin (COO) classification into GCB and ABC groups,
the presence of BCL6 translocation (3q27) and BCL2 mutation (including amplification and translocation). […]

DoHH2 = experiment: Growth inhibition (GI50); assay type: cell-based; details: 48 h, resazurin reduction
Description: (§2) Cells were grown on U-bottom 96-well plates at respective concentrations sufficient to keep untreated cells under exponential growth by the time of read-out after treatment. Cells were exposed to each drug alone and to the combination of both drugs on the same plate in 48 h experiments. In sequential experiments, compounds were added 48 h apart in 72 h experiments. Cell viability was then determined using a fluorometric assay based on the resazurin reduction activity of the cells (Cell Titer Blue, Promega) and confirmed by trypan blue dye-exclusion (Sigma). Fluorescence was determined for controls and three replicates per treatment condition using the Synergy4 microplate reader (BioTek). Standard curves were obtained for each individual cell line with the cell count and fluorescence values. The number of viable cells was obtained using the least-squares regression method of the standard curve and by doing a ratiometric quantification of viable cells normalized to the respective controls. Experiments were conducted in triplicates. A cell killing effect was calculated as the 1 — normalized viability value.

OCI-Ly7 = experiment: Growth inhibition (GI50); assay type: cell-based; details: OCI-Ly7 (harbors a BCL2 deletion); Figure 2A, for ABT-737 also ref 14
Description: as §2

SC-1 = experiment: Growth inhibition (GI50); assay type: cell-based; details: 48 h, resazurin reduction
Description: as §2

SU-DHL4 = experiment: Growth inhibition (GI50); assay type: cell-based; details: 48 h, resazurin reduction
Description: as §2

SU-DHL6 = experiment: Growth inhibition (GI50); assay type: cell-based; details: 48 h, resazurin reduction
Description: as §2

[1] = system: BCL2 independent DLBCL cells; experiment: Dose reduction index, sequential RI-BPI then BH3 mimetic; assay type: cell-based; details: pre-treated 48 h with RI-BPI, sequential 72 h; all but one (SU-DHL8) of the BCL2 independent DLBCL cell lines, including OCI-Ly7
Description: as §2

OCI-Ly1 xenografts = experiment: OCI-Ly1 xenograft tumor growth; assay type: in vivo; details: OCI-Ly1 xenografts in SCID mice, i.p. 10 days; RI-BPI 25 mg/kg/day, ABT-737 50 mg/kg/day, bortezomib 0.3 mg/kg/day, MLN4924 15 mg/kg every 12 h; p<0.05, T-test
Description: (§3) For these experiments OCI-Ly1 and OCI-Ly7 cells were injected in the right flank of SCID mice (n = 80 for each cell line) and tumor growth was allowed until reaching a volume of 75 - 100 mm^3. […] Tumor growth was measured every day during the 10-day treatment course and the area under the curve (AUC) was calculated.
(§4) Mouse xenografts: Animal procedures followed NIH protocols and were approved by the Animal Institute Committee of the Weill Cornell College or Medicine. SCID mice were subcutaneously injected on the right flank with GCB-DLBCL cell lines OCI-Ly1, OCI-Ly7 and SU-DHL6. Tumor volumes were monitored every day using electronic calipers (Fischer Scientific). When tumor reached a palpable size (around 75 to 100 mm^3) animals were randomized into 8 groups of 10 mice (or four groups of 5 mice for SU-DHL6 xenografts) and treated intraperitoneally accordingly to the schedule and doses shown in Figure 5A. In combinatorial treatments, mice were injected with RI-BPI (or vehicle) alone the first day followed by the combination the subsequent days. We used the area-under-the-curve (AUC) as the quantitative metric to represent the evolution of tumor volume over the time frame (10 – 13 days) of the experiment. The comparisons between treated and control mice were done using MANOVA followed by pair-wise comparison using the two-tailed T-test or Mann Whitney test for SU-DHL6 mice. Rat pharmacokinetic: Animal procedures followed NIH protocols and were conducted by Calvert Laboratories (study 0835RM44.001, Scott Township, PA). Briefly, male Sprague=Dawley rats (n = 3) were injected intravenously with 10 mg/kg of RI-BPI in sterile 50% water:50% saline and whole blood samples were collected through a jugular vein catheter at several time-points. Derived plasma samples were analyzed by HPLC-UV to determine RI-BPI concentration. Pharmacokinetic parameters were estimated using a non-compartmental approach consistent with the route of administration. The AUC that describe the total exposure to RI-BPI was estimated with the linear trapezoidal method and used to derive in vitro exposure doses.

[2] = system: BCL6-dependent GCB-DLBCL cells; experiment: Growth inhibition (GI50), panel of BCL6-dependent GCB-DLBCL cells; assay type: cell-based; details: 6 cell lines of the GCB-DLBCL panel; single agent
Description: as §2

[3] = system: BCL6-dependent GCB-DLBCL cell lines; experiment: Dose reduction index, MLN4924 or bortezomib after RI-BPI; assay type: cell-based; details: 8 BCL6-dependent GCB-DLBCL cell lines pre-treated with RI-BPI; all the cell lines tested
Description: as §2

NOXA = NOXA immunoblot; assay type: cell-based; details: SU-DHL6 and OCI-Ly1 cells, 24 h
Description: (§5) Cell pellets containing 5 × 10^6 cells were washed with ice-cold phosphate buffer saline and lysed with RIPA buffer (Tris-HCl 50mM, NaCl, 150 mM, NP-40 1%, Sodium Deoxylcholate 0.25%, SDS 0.1%), and fresh protease inhibitor cocktail (Roche) was added. Protein concentration in lysates was determined by BCA assay (Pierce) and 15 μg of protein sample were loaded on polyacrylamide electrophoresis pre-cast gels (BioRad). PVDF membranes were blocked with 5% non-fat dry milk (Blotting buffer, BioRad). Experiments were conducted at least in independent triplicates. Densitometry analysis was performed using ImageJ. We used the following primary antibodies: mouse anti-BCL6 (SC-7388, Santa Cruz), rabbit anti-BCL2 (SC-7382, Santa Cruz), rabbit anti-MCL1 (SC-819, Santa Cruz), rabbit anti-BIM (2933S, Cell Signaling Technologies), rabbit anti-BLC-XL (2764S, Cell Signaling Technologies), mouse anti-GAPDH (ab8245, Abcam), rabbit anti-NOXA (Santa Cruz), mouse anti-tubulin (T9026, Sigma-Aldrich), rabbit anti-BMF (ab181148, Abcam) and rabbit anti-caspase 9 (9502, Cell Signaling Technologies).

BMF = BMF immunoblot; assay type: cell-based; details: SU-DHL6 cells
Description: as §5

NFkB (p50, p52, p65) = experiment: NFkB DNA-binding activity assay (TransAM), HBL-1 cells; assay type: cell-based; details: HBL-1 (ABC-DLBCL) cells; drug at GI50 for 24 h; decreased almost completely
Description: The DNA-binding capacity of NFkB (p50, p52, c-Rel, Rel-B and p65) was assayed by a plate-based assay (TransAM, Active Motif, Carlsbad) following the manufacturer instructions. Briefly, 5×10^6 GCB-DLBCL cells were treated with vehicle, bortezomib or MLN4924 and 10 μg of nuclear lysates were added to the wells containing pre-adsorbed NFkB consensus or competitor (mutant) oligonucleotides. HBL-1 cells (ABC-DLBCL) were used as positive controls for the assay. After incubation and washing, primary anti-NFkB antibody was added to each well, followed by HPR-anti-rabbit secondary antibody. After HRP substrate addition, absorbance was read at 450 nm with a reference wavelength of 655 nm (Synergy4, Biotek). In this assay the absorbance is directly proportional to the quantity of DNA-bound transcription factor present in the sample. Experiments were carried out in four replicates. Results were expressed as mean absorbance values with SEM to mutant probe. P-values were obtained by two-tailed T-test.

OCI-Ly7 xenografts = experiment: OCI-Ly7 xenograft tumor growth; assay type: in vivo, SCID mice; details: p<0.05, T-test; for tumor growth at day 10 (AUC of tumor volume) vs vehicle: OCI-Ly7 xenografts in SCID mice, i.p. 10 days, RI-BPI 25 mg/kg/day, obatoclax 2 mg/kg/day, bortezomib 0.3 mg/kg/day, MLN4924 15 mg/kg every 12 h
Description: as §3, §4

[4] = for MPV: C57BL/6 mice, i.p., schedule and doses of xenograft mice (RI-BPI 25, obatoclax 2, bortezomib 0.3 mg/kg/day, MLN4924 15 mg/kg every 12 h), vehicle 6.7
Excerpt: as §1
Hematological and biochemical parameters of C57BL/6 mice treated with the schedule and doses of OCI-Ly1 and OCI-Ly7

NFkB (p50) = experiment: NFkB DNA-binding activity assay (TransAM), OCI-Ly1 cells; assay type: cell-based; details: drug at GI50 for 24 h, only p50 changed
OCI-Ly1 lymphoma tissues = experiment: TUNEL assay of xenografted lymphoma tissues; assay type: in vivo, SCID mice; details: post-treatment OCI-Ly1 lymphoma tissues; Mann-Whitney p = 0.0004 (RI-BPI), 0.002 (obatoclax), 0.0008 (bortezomib)
Description: DNA fragmentation coupled to the apoptotic response was detected in morphologically identifiable nuclei and apoptotic bodies present in formalin-fixed paraffin-embedded tumors by the TUNEL assay (ApopTag, Chemicon, Temecula, California) following the manufacturer's instructions. Tissue slides were pre-treated with 0.5% trypsin for 15 minutes (Zymed, San Francisco, California), to improve the exposure of DNA.

SMILES | sensitivity as single agent (GI50) (DoHH2) | sensitivity as single agent (GI50) (OCI-Ly7) | sensitivity as single agent (GI50) (SC-1) | sensitivity as single agent (GI50) (SU-DHL4) | sensitivity as single agent (GI50) (SU-DHL6) | sensitivity to BH3 mimetic after RI-BPI treatment (dose reduction index) [1] | tumor growth at day 10 (AUC of tumor volume) vs vehicle (OCI-Ly1 xenografts) | enhancement of response to RI-BPI (dose reduction index) [3] | NOXA protein levels (NOXA) | NFκB activation (DNA binding of p50, p52 and p65) (NFkB (p50, p52, p65)) | tumor growth at day 10 (AUC of tumor volume) vs vehicle (OCI-Ly7 xenografts) | MPV [4] [fL] | percent of apoptotic nuclei (TUNEL) vs vehicle control (OCI-Ly1 lymphoma tissues) | other results
CN(C)CC[C@H](CSc1ccccc1)Nc1ccc(S(=O)(=O)NC(=O)c2ccc(N3CCN(Cc4ccccc4-c4ccc(Cl)cc4)CC3)cc2)cc1[N+](=O)[O-] [ABT-737] | sensitive | highly resistant | sensitive | sensitive | sensitive | gained sensitivity | significantly reduced |  |  |  |  |  |  | loss of viability (OCI-Ly1 cells; OCI-Ly1 transfected with BCL6 siRNA, BCL6 knockdown alone 68%, p < 0.03, T-test): 97%; cells killed (loss of viability) (OCI-Ly1 cells; OCI-Ly1 transfected with control siRNA): 57%; sensitization to RI-BPI by pre-treatment with ABT-737 (OCI-Ly4): failed to sensitize
NS(=O)(=O)OC[C@@H]1C[C@@H](n2ccc3c(N[C@H]4CCc5ccccc54)ncnc32)C[C@@H]1O [MLN4924] |  |  |  |  |  |  | significantly reduced | favorable DRIs | significant stabilization of NOXA | decreased | significantly reduced | 6.5 |  | GI50 [2]: > 100 nM; BMF protein levels (BMF): increased
CC(C)C[C@H](NC(=O)[C@H](Cc1ccccc1)NC(=O)c1cnccn1)B(O)O [bortezomib] |  |  | resistant | resistant |  |  | significantly reduced | favorable DRIs | significant stabilization of NOXA | decreased | significantly reduced | 6.6 | significantly increased | NFκB activation (DNA binding of p50) (NFkB (p50)): mild decrease; single-agent efficacy compared between drugs (OCI-Ly7 xenografts; OCI-Ly7 xenografts): more effective than obatoclax; toxicity by body weight follow-up, plasma hematology and biochemistry parameters ([4]; mouse, in vivo): mild monocytosis and AST increase
COC1=CC(c2cc3ccccc3[nH]2)=N/C1=C\c1[nH]c(C)cc1C [obatoclax] | sensitive | highly resistant | sensitive | sensitive | sensitive | gained sensitivity |  |  |  |  | significantly reduced | 6.4 | significantly increased | 
